Columns and labels:
[1] = target: Mitogen-activated protein kinase kinase kinase 11 (Homo sapiens) (UniProt Q16584); assay: Inhibition of human MLK3/MAP3K11 using myelin basic protein as substrate at 1 uM in presence of 32P-ATP by Hotspot assay relative to control; values are per cent of control
[2] = target: Serine/threonine-protein kinase 25 (Homo sapiens) (UniProt O00506); assay: Inhibition of human STK25/YSK1 using myelin basic protein as substrate at 1 uM in presence of 32P-ATP by Hotspot assay relative to control; values are per cent of control
[3] = target: Leucine-rich repeat serine/threonine-protein kinase 2 (Homo sapiens) (UniProt Q5S007); assay: Inhibition of human LRRK2 using RLGRDKYKTLRQIRQ as substrate at 1 uM in presence of 32P-ATP by Hotspot assay relative to control; values are per cent of control
[4] = target: RAC-beta serine/threonine-protein kinase (Homo sapiens) (UniProt P31751); assay: Inhibition of human AKT2 using KGSGSGRPRTSSFAEG as substrate at 1 uM in presence of 32P-ATP by Hotspot assay relative to control; values are per cent of control
[5] = target: Serine/threonine-protein kinase WNK2 (Homo sapiens) (UniProt Q9Y3S1); assay: Inhibition of human WNK2 using myelin basic protein as substrate at 1 uM in presence of 32P-ATP by Hotspot assay relative to control; values are per cent of control
[6] = target: Dual specificity protein kinase CLK3 (Homo sapiens) (UniProt P49761); assay: Residual activity of human CLK3 using myelin basic protein as substrate at 1 uM in presence of 32P-ATP by Hotspot assay relative to control
[7] = target: T1, Muscle, skeletal receptor tyrosine-protein kinase (Homo sapiens) (UniProt O15146); assay: Inhibition of human MUSK using myelin basic protein as substrate at 1 uM in presence of 32P-ATP by Hotspot assay relative to control; values are per cent of control
T1 sequence (whole entry): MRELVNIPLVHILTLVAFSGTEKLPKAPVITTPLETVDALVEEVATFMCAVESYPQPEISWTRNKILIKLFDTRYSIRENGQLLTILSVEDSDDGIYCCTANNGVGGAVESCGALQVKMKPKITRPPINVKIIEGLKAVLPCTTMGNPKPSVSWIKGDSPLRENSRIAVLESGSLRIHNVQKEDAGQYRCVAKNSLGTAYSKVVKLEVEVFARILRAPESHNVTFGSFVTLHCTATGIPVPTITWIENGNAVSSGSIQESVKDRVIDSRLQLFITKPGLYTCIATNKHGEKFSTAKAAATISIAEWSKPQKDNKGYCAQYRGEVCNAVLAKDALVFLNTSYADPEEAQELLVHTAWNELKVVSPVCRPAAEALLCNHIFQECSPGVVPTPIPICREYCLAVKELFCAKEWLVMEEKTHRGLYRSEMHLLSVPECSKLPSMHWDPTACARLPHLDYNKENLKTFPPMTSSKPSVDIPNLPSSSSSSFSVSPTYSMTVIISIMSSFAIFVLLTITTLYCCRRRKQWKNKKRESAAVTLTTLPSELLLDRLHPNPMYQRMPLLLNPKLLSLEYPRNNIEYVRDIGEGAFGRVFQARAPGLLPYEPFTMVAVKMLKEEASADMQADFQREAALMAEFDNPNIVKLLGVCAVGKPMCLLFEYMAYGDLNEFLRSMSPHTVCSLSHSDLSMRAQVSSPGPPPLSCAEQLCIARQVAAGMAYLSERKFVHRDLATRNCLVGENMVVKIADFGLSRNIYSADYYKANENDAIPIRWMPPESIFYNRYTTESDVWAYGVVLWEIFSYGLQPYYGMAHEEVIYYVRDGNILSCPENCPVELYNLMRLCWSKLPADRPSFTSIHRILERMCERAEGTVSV

[8] = target: Dual specificity protein kinase CLK2 (Homo sapiens) (UniProt P49760); assay: Inhibition of human CLK2 using myelin basic protein as substrate at 1 uM in presence of 32P-ATP by Hotspot assay relative to control; values are per cent of control
[9] = target: Serine/threonine-protein kinase PAK 5 (Homo sapiens) (UniProt Q9P286); assay: Residual activity of human PAK5 using RRRLSFAEPG as substrate at 1 uM in presence of 32P-ATP by Hotspot assay relative to control
[10] = target: Vascular endothelial growth factor receptor 1 (Homo sapiens) (UniProt P17948); assay: Inhibition of human FLT1/VEGFR1 using poly[Glu:Tyr] (4:1) as substrate at 1 uM in presence of 32P-ATP by Hotspot assay relative to control; values are per cent of control
[11] = target: Calcium/calmodulin-dependent protein kinase type 1G (Homo sapiens) (UniProt Q96NX5); assay: Inhibition of human CAMK1g using KKALRRQETVDAL as substrate at 1 uM in presence of 32P-ATP by Hotspot assay relative to control; values are per cent of control
[12] = target: Misshapen-like kinase 1 (Homo sapiens) (UniProt Q8N4C8); assay: Residual activity of human MINK/MINK1 using myelin basic protein as substrate at 1 uM in presence of 32P-ATP by Hotspot assay relative to control
[13] = target: Cyclin-dependent kinase 5/CDK5 activator 1 (Homo sapiens) (UniProt Q00535+Q15078); assay: Inhibition of human CDK5/p25 using RB Protein as substrate at 1 uM in presence of 32P-ATP by Hotspot assay relative to control; values are per cent of control
[14] = target: Myosin light chain kinase, smooth muscle (Homo sapiens) (UniProt Q15746); assay: Inhibition of human MLCK/MYLK using KKLNRTLSFAEPG as substrate at 1 uM in presence of 32P-ATP by Hotspot assay relative to control; values are per cent of control
[15] = target: Serine/threonine-protein kinase pim-1 (Homo sapiens) (UniProt P11309); assay: Inhibition of human PIM1 using RSRHSSYPAGT as substrate at 1 uM in presence of 32P-ATP by Hotspot assay relative to control; values are per cent of control
[16] = target: Casein kinase I isoform epsilon (Homo sapiens) (UniProt P49674); assay: Inhibition of human CK1epsilon using KRRRAL[pS]VASLPGL as substrate at 1 uM in presence of 32P-ATP by Hotspot assay relative to control; values are per cent of control
Chain of Casein kinase I isoform epsilon (Homo sapiens) (P49674 whole entry, looked up, canonical isoform): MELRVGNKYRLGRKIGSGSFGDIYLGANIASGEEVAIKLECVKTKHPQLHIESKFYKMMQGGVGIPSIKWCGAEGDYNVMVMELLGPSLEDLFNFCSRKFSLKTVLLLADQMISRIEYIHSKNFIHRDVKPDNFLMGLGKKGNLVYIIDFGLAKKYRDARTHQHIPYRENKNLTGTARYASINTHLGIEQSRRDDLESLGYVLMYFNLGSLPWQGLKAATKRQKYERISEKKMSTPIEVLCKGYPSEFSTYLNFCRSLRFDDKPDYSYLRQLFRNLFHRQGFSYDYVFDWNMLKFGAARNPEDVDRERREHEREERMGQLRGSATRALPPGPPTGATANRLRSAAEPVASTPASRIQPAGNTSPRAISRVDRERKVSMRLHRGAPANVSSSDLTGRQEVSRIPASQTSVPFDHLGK

Chain of Vascular endothelial growth factor receptor 1 (Homo sapiens) (P17948 whole entry): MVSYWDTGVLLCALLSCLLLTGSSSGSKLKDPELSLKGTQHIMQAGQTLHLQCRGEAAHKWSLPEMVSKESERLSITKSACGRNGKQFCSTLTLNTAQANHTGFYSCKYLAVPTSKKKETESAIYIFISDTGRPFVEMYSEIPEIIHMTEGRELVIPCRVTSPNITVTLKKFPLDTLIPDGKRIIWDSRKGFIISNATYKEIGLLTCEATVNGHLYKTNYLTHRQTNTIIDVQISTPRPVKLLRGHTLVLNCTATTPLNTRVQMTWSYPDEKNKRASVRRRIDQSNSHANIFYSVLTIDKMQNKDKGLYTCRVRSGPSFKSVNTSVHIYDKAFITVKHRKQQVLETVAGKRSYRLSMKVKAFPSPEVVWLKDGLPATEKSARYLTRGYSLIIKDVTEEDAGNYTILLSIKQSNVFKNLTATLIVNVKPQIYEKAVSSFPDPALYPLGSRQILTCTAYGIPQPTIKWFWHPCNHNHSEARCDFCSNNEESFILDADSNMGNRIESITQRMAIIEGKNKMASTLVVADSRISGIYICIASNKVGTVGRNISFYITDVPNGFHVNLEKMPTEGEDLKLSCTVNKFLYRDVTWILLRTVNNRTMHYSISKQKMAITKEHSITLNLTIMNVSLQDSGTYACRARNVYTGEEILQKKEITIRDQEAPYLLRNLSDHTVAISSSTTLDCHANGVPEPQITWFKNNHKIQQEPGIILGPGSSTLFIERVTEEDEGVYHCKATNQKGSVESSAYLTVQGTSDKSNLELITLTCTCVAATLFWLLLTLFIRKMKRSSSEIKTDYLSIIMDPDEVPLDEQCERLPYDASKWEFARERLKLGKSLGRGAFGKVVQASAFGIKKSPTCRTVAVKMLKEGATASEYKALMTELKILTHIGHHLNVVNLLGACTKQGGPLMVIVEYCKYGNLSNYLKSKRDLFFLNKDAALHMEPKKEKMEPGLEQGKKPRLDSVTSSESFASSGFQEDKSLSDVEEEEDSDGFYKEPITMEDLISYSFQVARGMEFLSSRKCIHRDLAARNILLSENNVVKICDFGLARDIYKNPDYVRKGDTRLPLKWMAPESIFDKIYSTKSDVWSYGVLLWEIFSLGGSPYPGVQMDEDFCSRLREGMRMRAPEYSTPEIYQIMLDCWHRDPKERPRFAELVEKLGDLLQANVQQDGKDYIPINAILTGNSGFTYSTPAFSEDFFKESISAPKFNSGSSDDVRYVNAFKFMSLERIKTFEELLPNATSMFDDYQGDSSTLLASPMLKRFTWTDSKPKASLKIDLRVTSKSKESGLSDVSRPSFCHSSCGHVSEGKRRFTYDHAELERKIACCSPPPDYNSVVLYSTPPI
Chain of Dual specificity protein kinase CLK3 (Homo sapiens) (P49761 whole entry, looked up): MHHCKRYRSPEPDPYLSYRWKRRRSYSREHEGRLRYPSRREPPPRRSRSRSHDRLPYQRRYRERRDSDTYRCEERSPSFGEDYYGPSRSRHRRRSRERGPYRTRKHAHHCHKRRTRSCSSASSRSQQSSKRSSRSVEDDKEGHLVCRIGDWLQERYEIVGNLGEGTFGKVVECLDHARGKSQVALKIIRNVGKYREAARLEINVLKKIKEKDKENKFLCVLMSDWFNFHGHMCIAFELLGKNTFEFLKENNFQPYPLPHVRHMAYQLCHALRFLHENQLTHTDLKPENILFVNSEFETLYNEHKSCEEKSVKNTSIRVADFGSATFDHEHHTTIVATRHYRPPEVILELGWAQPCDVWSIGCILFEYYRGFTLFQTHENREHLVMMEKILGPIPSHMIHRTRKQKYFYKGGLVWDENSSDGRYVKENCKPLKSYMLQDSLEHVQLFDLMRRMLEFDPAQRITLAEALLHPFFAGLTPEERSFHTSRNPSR
Chain of Leucine-rich repeat serine/threonine-protein kinase 2 (Homo sapiens) (Q5S007 whole entry): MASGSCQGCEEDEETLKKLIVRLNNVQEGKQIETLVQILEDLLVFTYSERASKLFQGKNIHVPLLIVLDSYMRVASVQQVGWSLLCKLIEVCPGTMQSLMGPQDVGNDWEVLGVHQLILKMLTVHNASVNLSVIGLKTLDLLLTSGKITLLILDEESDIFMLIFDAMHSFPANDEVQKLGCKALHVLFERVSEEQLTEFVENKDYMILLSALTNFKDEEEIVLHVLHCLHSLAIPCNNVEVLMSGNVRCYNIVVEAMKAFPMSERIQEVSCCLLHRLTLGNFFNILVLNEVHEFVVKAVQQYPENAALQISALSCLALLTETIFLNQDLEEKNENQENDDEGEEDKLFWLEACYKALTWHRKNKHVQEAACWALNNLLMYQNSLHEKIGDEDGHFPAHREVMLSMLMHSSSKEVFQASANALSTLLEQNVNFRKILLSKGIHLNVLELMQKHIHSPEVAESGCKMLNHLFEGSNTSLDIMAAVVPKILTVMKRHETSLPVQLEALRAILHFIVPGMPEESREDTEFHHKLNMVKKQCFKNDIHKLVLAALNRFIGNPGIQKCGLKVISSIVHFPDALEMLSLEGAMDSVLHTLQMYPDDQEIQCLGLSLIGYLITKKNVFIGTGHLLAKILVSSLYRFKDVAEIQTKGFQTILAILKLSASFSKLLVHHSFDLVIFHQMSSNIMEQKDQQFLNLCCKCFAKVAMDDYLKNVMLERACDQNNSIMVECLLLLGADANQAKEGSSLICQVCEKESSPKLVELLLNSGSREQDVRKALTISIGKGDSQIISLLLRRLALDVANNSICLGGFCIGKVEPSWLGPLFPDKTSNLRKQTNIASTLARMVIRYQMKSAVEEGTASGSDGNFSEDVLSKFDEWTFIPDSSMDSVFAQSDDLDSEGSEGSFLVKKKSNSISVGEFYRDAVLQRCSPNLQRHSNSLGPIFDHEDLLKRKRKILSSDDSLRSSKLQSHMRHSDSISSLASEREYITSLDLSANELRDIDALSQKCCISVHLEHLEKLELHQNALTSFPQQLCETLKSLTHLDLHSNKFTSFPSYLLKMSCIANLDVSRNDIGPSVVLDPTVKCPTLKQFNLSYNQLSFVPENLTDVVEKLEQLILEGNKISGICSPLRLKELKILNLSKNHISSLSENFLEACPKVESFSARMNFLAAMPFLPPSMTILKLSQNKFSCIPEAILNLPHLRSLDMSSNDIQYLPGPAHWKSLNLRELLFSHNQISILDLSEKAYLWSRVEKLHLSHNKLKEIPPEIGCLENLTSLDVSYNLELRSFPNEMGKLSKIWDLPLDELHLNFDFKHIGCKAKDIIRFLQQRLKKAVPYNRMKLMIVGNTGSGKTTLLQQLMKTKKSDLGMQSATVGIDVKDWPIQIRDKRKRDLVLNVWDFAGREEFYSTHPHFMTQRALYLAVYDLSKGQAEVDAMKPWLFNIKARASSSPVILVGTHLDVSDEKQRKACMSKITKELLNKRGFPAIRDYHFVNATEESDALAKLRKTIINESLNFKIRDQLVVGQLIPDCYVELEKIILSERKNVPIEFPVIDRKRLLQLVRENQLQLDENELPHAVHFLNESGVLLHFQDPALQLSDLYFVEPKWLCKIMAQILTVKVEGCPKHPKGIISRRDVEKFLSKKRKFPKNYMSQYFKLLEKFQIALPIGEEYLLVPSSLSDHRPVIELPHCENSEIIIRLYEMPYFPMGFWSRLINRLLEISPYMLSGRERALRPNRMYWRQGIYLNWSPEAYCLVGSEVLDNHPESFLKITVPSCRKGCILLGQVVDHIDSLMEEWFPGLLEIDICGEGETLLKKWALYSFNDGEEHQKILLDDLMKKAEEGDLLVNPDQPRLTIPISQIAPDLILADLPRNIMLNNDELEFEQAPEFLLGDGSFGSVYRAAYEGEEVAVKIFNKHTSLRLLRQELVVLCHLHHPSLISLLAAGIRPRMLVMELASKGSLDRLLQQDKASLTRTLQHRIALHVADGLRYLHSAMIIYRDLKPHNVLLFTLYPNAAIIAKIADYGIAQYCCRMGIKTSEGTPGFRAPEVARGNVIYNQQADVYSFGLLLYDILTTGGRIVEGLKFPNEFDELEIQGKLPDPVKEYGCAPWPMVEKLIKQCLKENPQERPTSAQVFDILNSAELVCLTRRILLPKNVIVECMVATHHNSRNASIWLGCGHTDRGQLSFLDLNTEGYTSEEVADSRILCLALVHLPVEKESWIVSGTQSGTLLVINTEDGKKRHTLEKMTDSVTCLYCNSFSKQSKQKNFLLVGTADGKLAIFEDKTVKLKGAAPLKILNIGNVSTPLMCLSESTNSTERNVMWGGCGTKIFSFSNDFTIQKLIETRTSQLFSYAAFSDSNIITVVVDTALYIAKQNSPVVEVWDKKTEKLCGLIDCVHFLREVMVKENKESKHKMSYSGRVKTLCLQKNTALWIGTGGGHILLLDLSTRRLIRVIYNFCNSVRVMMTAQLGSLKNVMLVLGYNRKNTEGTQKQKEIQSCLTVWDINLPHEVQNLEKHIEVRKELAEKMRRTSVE
Chain of Serine/threonine-protein kinase pim-1 (Homo sapiens) (P11309 whole entry, looked up, canonical isoform): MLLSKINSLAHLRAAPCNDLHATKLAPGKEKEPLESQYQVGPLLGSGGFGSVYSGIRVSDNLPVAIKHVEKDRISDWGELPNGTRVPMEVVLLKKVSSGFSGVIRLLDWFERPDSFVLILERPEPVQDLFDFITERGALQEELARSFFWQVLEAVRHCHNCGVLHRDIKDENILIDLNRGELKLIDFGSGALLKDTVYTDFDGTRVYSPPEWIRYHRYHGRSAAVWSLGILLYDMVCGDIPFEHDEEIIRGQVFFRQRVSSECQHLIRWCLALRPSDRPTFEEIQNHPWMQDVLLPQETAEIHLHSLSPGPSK

In the case of CC(C)S(=O)(=O)c1ccc2nccc(Nc3ccc4scnc4c3)c2c1, the residual activity [1] is reported as 81.1%, the residual activity [2] is reported as 98.8% and the residual activity [3] is reported as 90.5%. It also gave a residual activity [4] of 89%, a residual activity [5] of 103% and a residual activity [6] of 99%. It also gave a residual activity [7] of 98.1%, a residual activity [8] of 97.1% and a residual activity [9] of 105%. For the same compound, the residual activity [10] was 85%, the residual activity [11] was 85.6% and the residual activity [12] was 94.6%. For the same compound, the residual activity [13] was 99.9%, the residual activity [14] was 97.9% and the residual activity [15] was 96.4%. The residual activity [16] was 106%.
In the case of Cc1cc(-c2cnc(N)c3c(-c4ccc5scnc5c4)csc23)n(C)n1, the residual activity [1] is reported as 69.5%, the residual activity [2] is reported as 106% and the residual activity [3] is reported as 88.5%. For the same compound, the residual activity [4] was 95.4%, the residual activity [5] was 98.9% and the residual activity [6] was 98.3%. It also gave a residual activity [7] of 105%, a residual activity [8] of 101% and a residual activity [9] of 99.5%. The residual activity [10] was 96.8%, the residual activity [11] was 90.9% and the residual activity [12] was 19.5%. For the same compound, the residual activity [13] was 96.7%, the residual activity [14] was 95.3% and the residual activity [15] was 98.4%. For the same compound, the residual activity [16] was 73%.
Work on CNC(=O)c1ccc2c(c1)ncn2-c1ccc(CC(=O)OC(C)(C)C)cc1 yielded a residual activity [1] of 85.4%, a residual activity [2] of 104% and a residual activity [3] of 94.5%. The residual activity [4] was 96.8%, the residual activity [5] was 97.9% and the residual activity [6] was 97.4%. For the same compound, the residual activity [7] was 103%, the residual activity [8] was 93.7% and the residual activity [9] was 95.7%. The residual activity [10] was 72.5%, the residual activity [11] was 94.2% and the residual activity [12] was 91.8%. The residual activity [13] was 93.1%, the residual activity [14] was 97.7% and the residual activity [15] was 98.5%. It also gave a residual activity [16] of 94.2%.
